Assay results reported in the NIST ThermoML archive (doi:10.1016/j.jct.2010.05.009).

How the values were obtained:
[1] = refractive index (Na D-line) (dimensionless); xn = mol fraction of the nth substance listed; details: 101 kPa, Liquid, Standard Abbe refractometry
[2] = xn = mol fraction of the nth substance listed; details: 101 kPa, Liquid; for viscosity: Capillary tube (Ostwald / Ubbelohde) method; for mass density: Vibrating tube method

CCCN [propan-1-amine] + C1CCOC1
Details | mass density, [2] [kg/m3] | refractive index, [1] | viscosity, [2] [mPa·s]
288.15 K, x2 = 0 | 721.57 | 1.3899 | 0.3851
288.15 K, x2 = 0.0542 | 730.55 | 1.3908 | 0.3898
288.15 K, x2 = 0.1599 | 748.15 | 1.3927 | 0.3991
288.15 K, x2 = 0.1934 | 753.76 | 1.3933 | 0.4021
288.15 K, x2 = 0.3199 | 775.03 | 1.3956 | 0.4138
288.15 K, x2 = 0.4 | 788.58 | 1.397 | 0.4211
288.15 K, x2 = 0.4789 | 802.01 | 1.3985 | 0.4289
288.15 K, x2 = 0.56 | 815.87 | 1.4 | 0.4371
288.15 K, x2 = 0.6402 | 829.71 | 1.4015 | 0.4455
288.15 K, x2 = 0.7201 | 843.56 | 1.4031 | 0.4546
288.15 K, x2 = 0.8791 | 871.41 | 1.4062 | 0.4765
288.15 K, x2 = 0.9585 | 885.46 | 1.4078 | 0.4902
298.15 K, x2 = 0 | 711.08 | 1.3844 | 0.3585
298.15 K, x2 = 0.0542 | 719.96 | 1.3854 | 0.3632
298.15 K, x2 = 0.1599 | 737.23 | 1.3873 | 0.372
298.15 K, x2 = 0.1934 | 742.73 | 1.3879 | 0.3747
298.15 K, x2 = 0.3199 | 763.65 | 1.3902 | 0.3856
298.15 K, x2 = 0.4 | 777.02 | 1.3917 | 0.3926
298.15 K, x2 = 0.4789 | 790.28 | 1.3931 | 0.3996
298.15 K, x2 = 0.56 | 804.04 | 1.3947 | 0.4071
298.15 K, x2 = 0.6402 | – | 1.3965 | –
298.15 K, x2 = 0.651 | 819.66 | – | 0.4149
298.15 K, x2 = 0.7201 | 831.66 | 1.3978 | 0.4229
298.15 K, x2 = 0.8791 | 859.85 | 1.4011 | 0.4396
298.15 K, x2 = 0.9585 | 874.29 | 1.4028 | 0.4489
308.15 K, x2 = 0 | 700.4 | 1.3784 | 0.3222
308.15 K, x2 = 0.0542 | 709.15 | 1.3793 | 0.3269
308.15 K, x2 = 0.1599 | 726.3 | 1.3812 | 0.3363
308.15 K, x2 = 0.1934 | 731.73 | 1.3818 | 0.3393
308.15 K, x2 = 0.3199 | 752.47 | 1.3842 | 0.3509
308.15 K, x2 = 0.4 | 765.73 | 1.3857 | 0.3584
308.15 K, x2 = 0.4789 | 778.88 | 1.3873 | 0.3659
308.15 K, x2 = 0.56 | 792.57 | 1.3889 | 0.3736
308.15 K, x2 = 0.6402 | – | 1.3906 | –
308.15 K, x2 = 0.651 | 806.31 | – | 0.3813
308.15 K, x2 = 0.7201 | 820.22 | 1.3923 | 0.3891
308.15 K, x2 = 0.8791 | 848.66 | 1.3958 | 0.4049
308.15 K, x2 = 0.9585 | 863.3 | 1.3977 | 0.4129
